# Test results from US20160367502A1, “FILM COATED PELLETS” (RATIOPHARM GMBH, priority 2012, published 2016).
# Where two headings read alike, the source gives them in different places.
# Test: Solubility in water at 25° C.
# Assay type: physicochemical
# Method: If it is not known, it can be determined by conventional methods. […] The amount or concentration of the active pharmaceutical ingredient in the solution is determined by analytical techniques known in the art.
# [1] = sitagliptin salts, water, 25° C.
molecule,measurement,setting,value
"N[C@@H](CC(=O)N1CCn2c(nnc2C(F)(F)F)C1)Cc1cc(F)c(F)cc1F.O=C[C@H](O)[C@@H](O)[C@H](O)[C@H](O)C(=O)O [D-Glucuronate, sitagliptin D-glucuronate]",Solubility of sitagliptin salts in water at 25° C.,[1],>500 mg/mL
"N[C@@H](CC(=O)N1CCn2c(nnc2C(F)(F)F)C1)Cc1cc(F)c(F)cc1F.O=P(O)(O)O [Dihydrogen phosphate, sitagliptin dihydrogen phosphate]",Solubility of sitagliptin salts in water at 25° C.,[1],100 to 120 mg/mL
sitagliptin glutarate,Solubility of sitagliptin salts in water at 25° C.,,>500 mg/mL
